# Patent publication US8895032B2, “Dendritic nano-antioxidants” (Central Michigan University, priority 2009, dated 2014)
# Where “and” joins values, the source holds several entries; their conditions need not be identical. Equal values may be shown once.
# Assays:
# Type in all cases: biochemical
# [1] = ABTS radical cation decolorization assay; conditions: for IC50: final concentration in the cuvet, read-out: concentration at which 50% inhibition of ABTS•+ was observed; for Slope of % decrease in absorbance at 6 min versus antioxidant concentration: linear regression, concentration in μM; for TEAC: slope divided by that of Trolox, % decrease in A734 at 6 min, ethanol
# Excerpt: We have tested AO activity of G1 (13) using ABTS as a radical source using a previously reported spectroscopic assay. The AO activity of the G1 (13) was compared to those of syringaldehyde, gallic acid, and vitamin C. If the phenolic OH group is the radical scavenging site, the expected AO activity of the G1 (13) should be 4 fold higher than that of syringaldehyde and 1.3 fold higher than that of gallic acid (which has three phenolic OH groups).
# ABTS radical cation decolorization assay was used as previously described (Ozgen, et al. J. Agric. Food Chem. 2006, 54, 1151-1157, incorporated herein by reference in its entirety). Like the DPPH assay, this was also a decolorization assay and measured absorbance decrease at 734 nm as the ABTS radical (ABTS•+) is quenched by the antioxidant. The solvent used for the assay was ethanol. ABTS reagent was added to 1.0 mL solvent in a cuvet to bring the absorbance to 0.7. A 10 μL sample of antioxidant was then added, mixed, and the absorbance monitored at 734 nm for 6 min. Antioxidant concentrations were 14.4 μM Trolox, 11.4 μM ascorbic acid, 15.4 μM syringaldehyde, and 3 μM compound 1. The % decrease in absorbance at 6 min was plotted against antioxidant concentrations. The gradient of the line obtained by linear regression for a given antioxidant was divided by that obtained for Trolox to yield Trolox equivalent antioxidant (TEAC) values. All samples were made in ethanol and run in triplicates and at room temperature.
# [2] = FRAP assay (reduction of Fe(III) to Fe(II)); set-up: Slope of ΔA593 versus concentration: unit not given here; conditions: for Slope of ΔA593 versus concentration: 37° C.
# Procedure: The FRAP assay was performed as previously described (Pulido, et al. J. Agric. Food Chem. 2000, 48, 3396-3402, incorporated herein by reference in its entirety). In the FRAP assay, ferric was reduced by the antioxidant to ferrous via electron transfer (Benzie et al., Anal. Biochem. 1996, 239, 70-76, incorporated herein by reference in its entirety). This assay measured the redox potential of an antioxidant which is used as an estimate of antioxidant efficiency and expressed as a FRAP value. […] The compound 1 as well as the other antioxidants was dissolved in methanol. […] Reaction kinetics of the compound 1 and other antioxidants were obtained by plotting the change in slopes at various times and are shown in FIG. 18. […] This time-dependent increase in absorbance was previously reported (Pulido, et al. J. Agric. Food Chem. 2000, 48, 3396-3402, incorporated herein by reference in its entirety) and was especially significant with polyphenolic compounds. […] However, the FRAP value increased with time, reaching 2.5 in 60 min. […] J. Agric. Food Chem. 2000, 48, 3396-3402, incorporated herein by reference in its entirety). […] EC1 values, and therefore ferric reducing ability, were lower at longer reaction times as expected from the kinetic behavior of the antioxidants (Pulido, et al. J. Agric. Food Chem. 2000, 48, 3396-3402, incorporated herein by reference in its entirety).
# Human LDL = assay: Protection of LDL from AAPH oxidation (agarose gel electrophoresis); conditions: 37° C.
IC50 [1] [µM],Compound,"Antioxidant Capacity Relative to Trolox, ABTS [1]",Slope of % decrease in absorbance at 6 min versus antioxidant concentration [1],TEAC [1],"Antioxidant Capacity Relative to Trolox, FRAP 5 min ([2]; 5 min)",EC1 (concentration with ferric-TPTZ reducing ability equivalent to 1 mM FeSO4.7H2O) ([2]; 5 min) [µM],FRAP value relative to Fe(II) ([2]; 5 min),FRAP value relative to Fe(II) ([2]; 15 min),FRAP value relative to Fe(II) ([2]; 30 min),"Antioxidant Capacity Relative to Trolox, FRAP 60 min ([2]; 60 min)",EC1 (concentration with ferric-TPTZ reducing ability equivalent to 1 mM FeSO4.7H2O) ([2]; 60 min) [µM],FRAP value relative to Fe(II) ([2]; 60 min),Slope of ΔA593 versus concentration ([2]; Reaction time 5 min),Slope of ΔA593 versus concentration ([2]; Reaction time 15 min),Slope of ΔA593 versus concentration ([2]; Reaction time 30 min),Slope of ΔA593 versus concentration ([2]; Reaction time 60 min),also measured
~1.5,COc1cc(CN(Cc2ccc(CN(Cc3cc(OC)c(O)c(OC)c3)Cc3cc(OC)c(O)c(OC)c3)cc2)Cc2cc(OC)c(O)c(OC)c2)cc(OC)c1O [Compound 1],8.5,33.9,8.48,6.1,74,13.5,14.6,15.1,7.2,63,15.8,0.163,0.175,0.182,0.190,"AO activity higher than that of gallic acid ([1]; ABTS as radical source): 3 fold; AO activity higher than that of syringaldehyde ([1]; ABTS as radical source): 7 fold; AO activity higher than that of vitamin C ([1]; ABTS as radical source): 7.6 fold; ABTS, times better than ascorbic acid ([1]; based on TEAC): 9.4 times; ABTS, times better than syringaldehyde ([1]; based on TEAC): 8.7 times; FRAP, times better than ascorbic acid ([2]; 5 min): 6.7 times; Antioxidant Capacity Relative to Trolox, FRAP 5 min ([2]; 5 min, listed as compound 1): ~6 and 6.1; FRAP ratio to syringaldehyde ([2]; 5 min, listed as compound 1): ~2.6 times and 2.7 times; FRAP ratio to syringaldehyde ([2]; 60 min): 1.7 times; FRAP, times better than ascorbic acid ([2]; 60 min): 6.5 times; Antioxidant Capacity Relative to Trolox, FRAP 60 min ([2]; 60 min, listed as compound 1): ~7 and 7.2; protection of LDL from AAPH free radicals (anodic migration) (Human LDL; 10 mM AAPH, 18 h): most efficient in protecting LDL; only concentration effective in protecting LDL (Human LDL; 20 mM AAPH, 21 h): 30 µM"
~10,"Cc1c(C)c2c(c(C)c1O)CCC(C)(C(=O)O)O2 (stereo not drawn) [Trolox, 6-hydroxy-2,5,7,8-tetramethylchroman-2-carboxylic acid]",1,4,1,1,450,2.2,2.2,2.2,1,449,2.2,0.0268,0.0269,0.0269,0.0269,"time to reach a plateau of ABTS•+ absorbance suppression ([1]; 14.4 μM Trolox, 11.4 μM ascorbic acid): one; FRAP value, did not change with time ([2]; testing period 60 min): 2.2; protection of LDL at all antioxidant concentrations (Human LDL; 1-30 μM, 20 mM AAPH, 21 h): ineffective"
